Where two headings read alike, the source gives them in different places.
COc1ncc(-c2nc3c(n2C(C)C)[C@H](c2ccc(Cl)cc2)N(c2cc(Cl)cn(C)c2=O)C3=O)c(OC)n1 [HDM201, (S)-5-(5-Chloro-1-methyl-2-oxo-1,2-dihydro-pyridin-3-yl)-6-(4-chloro-phenyl)-2-(2,4-dimethoxy-pyrimidin-5-yl)-1-isopropyl-5,6-dihydro-1H-pyrrolo[3,4-d]imidazol-4-one]
2 (25.0) n (%): Abdominal Pain, All Grades (1B 150 mg, N=8) | Anaemia, All Grades (1B 150 mg, N=8)
0 n (%): Abdominal Pain, Grade 3/4 (1B 120 mg, N=9) | Alanine Aminotransferase Increased, All Grades (1B 120 mg, N=9) | Alanine Aminotransferase Increased, Grade 3/4 (1B 120 mg, N=9) | Alopecia, Grade 3/4 (1B 120 mg, N=9) | Amylase Increased, All Grades (1B 120 mg, N=9) | Amylase Increased, Grade 3/4 (1B 120 mg, N=9) | Anaemia, Grade 3/4 (1B 120 mg, N=9) | Asthenia, Grade 3/4 (1B 120 mg, N=9) | Blood Bilirubin Increased, All Grades (1B 120 mg, N=9) | Blood Bilirubin Increased, Grade 3/4 (1B 120 mg, N=9) | Blood Creatinine Increased, Grade 3/4 (1B 120 mg, N=9) | Decreased Appetite, Grade 3/4 (1B 120 mg, N=9) | Dehydration, Grade 3/4 (1B 120 mg, N=9) | Diarrhoea, Grade 3/4 (1B 120 mg, N=9) | Dry Skin, Grade 3/4 (1B 120 mg, N=9) | Dysgeusia, Grade 3/4 (1B 120 mg, N=9) | Eye Pain, All Grades (1B 120 mg, N=9) | Eye Pain, Grade 3/4 (1B 120 mg, N=9) | Fatigue, Grade 3/4 (1B 120 mg, N=9) | Folliculitis, All Grades (1B 120 mg, N=9) | Folliculitis, Grade 3/4 (1B 120 mg, N=9) | Gamma-Glutamyltransferase Increased, All Grades (1B 120 mg, N=9) | Gamma-Glutamyltransferase Increased, Grade 3/4 (1B 120 mg, N=9) | Headache, All Grades (1B 120 mg, N=9) | Headache, Grade 3/4 (1B 120 mg, N=9) | Hyperkalaemia, Grade 3/4 (1B 120 mg, N=9) | Hypocalcaemia, Grade 3/4 (1B 120 mg, N=9) | Influenza Like Illness, All Grades (1B 120 mg, N=9) | Influenza Like Illness, Grade 3/4 (1B 120 mg, N=9) | Lethargy, All Grades (1B 120 mg, N=9) | Lethargy, Grade 3/4 (1B 120 mg, N=9) | Leukopenia, Grade 3/4 (1B 120 mg, N=9) | Lipase Increased, Grade 3/4 (1B 120 mg, N=9) | Lymphopenia, All Grades (1B 120 mg, N=9) | Lymphopenia, Grade 3/4 (1B 120 mg, N=9) | Monocytosis, Grade 3/4 (1B 120 mg, N=9) | Musculoskeletal Pain, Grade 3/4 (1B 120 mg, N=9) | Myalgia, Grade 3/4 (1B 120 mg, N=9) | Neuralgia, All Grades (1B 120 mg, N=9) | Neuralgia, Grade 3/4 (1B 120 mg, N=9) | Neutrophil Count Decreased, All Grades (1B 120 mg, N=9) | Neutrophil Count Decreased, Grade 3/4 (1B 120 mg, N=9) | Oedema, All Grades (1B 120 mg, N=9) | Oedema, Grade 3/4 (1B 120 mg, N=9) | Oral Candidiasis, All Grades (1B 120 mg, N=9) | Oral Candidiasis, Grade 3/4 (1B 120 mg, N=9) | Platelet Count Decreased, Grade 3/4 (1B 120 mg, N=9) | Pruritus, All Grades (1B 120 mg, N=9) | Pruritus, Grade 3/4 (1B 120 mg, N=9) | Thrombocytopenia, Grade 3/4 (1B 120 mg, N=9) | Vomiting, Grade 3/4 (1B 120 mg, N=9) | Weight Decreased, Grade 3/4 (1B 120 mg, N=9) | White Blood Cell Count Decreased, Grade 3/4 (1B 120 mg, N=9) | Abdominal Pain, Grade 3/4 (1B 150 mg, N=8) | Alanine Aminotransferase Increased, Grade 3/4 (1B 150 mg, N=8) | Alopecia, All Grades (1B 150 mg, N=8) | Alopecia, Grade 3/4 (1B 150 mg, N=8) | Amylase Increased, All Grades (1B 150 mg, N=8) | Amylase Increased, Grade 3/4 (1B 150 mg, N=8) | Anaemia, Grade 3/4 (1B 150 mg, N=8) | Asthenia, Grade 3/4 (1B 150 mg, N=8) | Blood Bilirubin Increased, Grade 3/4 (1B 150 mg, N=8) | Blood Creatine Phosphokinase Increased, All Grades (1B 150 mg, N=8) | Blood Creatine Phosphokinase Increased, Grade 3/4 (1B 150 mg, N=8) | Blood Creatinine Increased, Grade 3/4 (1B 150 mg, N=8)
9 (100) n (%): Total, All Grades (1B 120 mg, N=9)
3 (37.5) n (%): Decreased Appetite, All Grades (1B 150 mg, N=8)
1 (11.1) n (%): Abdominal Pain, All Grades (1B 120 mg, N=9) | Alopecia, All Grades (1B 120 mg, N=9) | Asthenia, All Grades (1B 120 mg, N=9) | Blood Creatine Phosphokinase Increased, Grade 3/4 (1B 120 mg, N=9) | Blood Creatinine Increased, All Grades (1B 120 mg, N=9) | Decreased Appetite, All Grades (1B 120 mg, N=9) | Dehydration, All Grades (1B 120 mg, N=9) | Dry Skin, All Grades (1B 120 mg, N=9) | Dysgeusia, All Grades (1B 120 mg, N=9) | Fatigue, All Grades (1B 120 mg, N=9) | Hyperkalaemia, All Grades (1B 120 mg, N=9) | Hypocalcaemia, All Grades (1B 120 mg, N=9) | Leukopenia, All Grades (1B 120 mg, N=9) | Lipase Increased, All Grades (1B 120 mg, N=9) | Monocytosis, All Grades (1B 120 mg, N=9) | Musculoskeletal Pain, All Grades (1B 120 mg, N=9) | Myalgia, All Grades (1B 120 mg, N=9) | Nausea, Grade 3/4 (1B 120 mg, N=9) | Thrombocytopenia, All Grades (1B 120 mg, N=9) | Weight Decreased, All Grades (1B 120 mg, N=9)
2 (22.2) n (%): Anaemia, All Grades (1B 120 mg, N=9) | Blood Creatine Phosphokinase Increased, All Grades (1B 120 mg, N=9) | Neutropenia, All Grades (1B 120 mg, N=9) | Neutropenia, Grade 3/4 (1B 120 mg, N=9) | White Blood Cell Count Decreased, All Grades (1B 120 mg, N=9)
3 (33.3) n (%): Diarrhoea, All Grades (1B 120 mg, N=9) | Platelet Count Decreased, All Grades (1B 120 mg, N=9) | Vomiting, All Grades (1B 120 mg, N=9)
4 (44.4) n (%): Total, Grade 3/4 (1B 120 mg, N=9)
7 (77.8) n (%): Nausea, All Grades (1B 120 mg, N=9)
1 (12.5) n (%): Alanine Aminotransferase Increased, All Grades (1B 150 mg, N=8) | Asthenia, All Grades (1B 150 mg, N=8) | Blood Bilirubin Increased, All Grades (1B 150 mg, N=8) | Blood Creatinine Increased, All Grades (1B 150 mg, N=8)

From patent publication US20210363254A1, “PHARMACEUTICAL COMBINATIONS” (Novartis AG, priority 2018, published 2021)
